The source of these data is PMC6271340, “Synthesis and Anti-Tumor Activity of Novel Aminomethylated Derivatives of Isoliquiritigenin” (Molecules, 2014).

The subject of data set [1] is PC-3, human prostate cancer cells. Put plainly: MTT cytotoxicity assay, PC-3. The format is cell-based. Conditions: 72 h. The procedure: (§1) We examined the cytotoxicity of ISL nitrogenous derivatives against three cancer cell lines (PC-3, MCF-7 and HO-8910) and normal human THP-1 cells using MTT growth inhibition assays. ISL was used as a positive control. […] The IC50 values were all above 100 µM.
(§2) Cytotoxicity was evaluated against four human cell lines (MCF-7 breast cancer, PC-3 prostatic cancer, HO-8910 ovarian cancer, and THP1 normal cells). Briefly, MCF-7, PC-3 and HO-8910 cells were separately plated in 96-well culture plates (1 × 10^5 cells/well). After 24 h incubation, cells were treated with compounds 7–16 (0, 3.13, 6.25, 12.5, 25, 50 and 100 µM) for 72 h. MTT solution (5 mg/mL) was then added to each well. After 4 h incubation, the formazan precipitate was dissolved in […] dimethyl sulfoxide (DMSO), and then the absorbance was measured in an ELISA reader (Thermo Molecular Devices Co., Union City, CA, USA) at 570 nm. The cell viability ratio was calculated by the following formula: Inhibitory ratio (%) = (1 − ODtreated/ODcontrol) × 100%.

The subject of data set [2] is MCF-7, human breast cancer cells. Description: MTT cytotoxicity assay, MCF-7. The format is cell-based. The conditions noted are these: MCF7, 72 h. The protocol: as §1, §2
The test system of data set [3] is HO-4980, human ovarian cancer cells. Description: MTT cytotoxicity assay, HO-4980 (HO-8910). The format is cell-based. The conditions noted are these: 72 h. The procedure:
as §1, §2
(Tetrazolium dyes change colour on reduction, which living cells bring about.)

Data set [4] is described as follows: MTT cytotoxicity assay, THP-1 normal cells. The format is cell-based. The conditions noted are these: human, THP-1 cells (called normal cells). The procedure:
as §1, §2

The next data set deals with S180 sarcoma cells. Description: Anti-tumor activity in S180 tumor-bearing mice. The format is in vivo. Conditions: S180 tumor-bearing BALB/c mice. The procedure:
(§3) Female BALB/c mice (6–8 weeks old, 25 ± 2 g) were obtained from the Third Affiliated Hospital of Harbin Medical University. S180 sarcoma cells were purchased from the Experimental Animal Center of Peking University Health Science Center (Heilongjiang, China). The animals were housed in polypropylene cages and maintained under controlled conditions of 12 h light/12 h dark photoperiod and 55 ± 5% relative humidity at room temperature (28 ± 2 °C). After fed in our facility for 1 week, 40 mice were induced S180 tumor cells according to Wu et al. with some modification. All mice were subcutaneously implanted with 1 × 10^6 cells/mice on the right flank. After inoculation for 24 h, all animals were randomly divided into one untreated control group, one treated positive control group and two treated experimental groups (each group contained 10 mice).
(§4) Group I (untreated control) received orally the same volume of 0.9% normal saline once per day as the treated groups. Group II (treated positive control) received orally ISL at a dosage of 40 mg/kg body weight once per day. Group III (low dose of ISL derivative 15 treatment) received ISL derivative 15 orally (dissolved in 0.2 mL normal saline) at a dosage of 40 mg/kg body weight once per day. Group IV (high-dose of ISL derivative 15 treatment) received ISL derivative 15 orally (dissolved in 0.2 mL normal saline) at a dosage of 80 mg/kg body weight once per day.

Data set [5] can be described thus: Body-weight change as toxicity parameter in S180 tumor-bearing mice. The format is in vivo. The conditions noted are these: for BWC (%) body-weight change: S180 tumor-bearing BALB/c mice; for Changes in body weight as parameter for toxicity (in words): ISL derivative 15 at 80 or 40 mg/kg, ISL at 40 mg/kg, S180 tumor-bearing mice. The procedure: For comparison, ISL (40 mg/kg) was analyzed as positive control. Changes in body weight were used as parameter for toxicity.
as §3, §4

Where “and” joins values, the source holds several entries; their conditions need not be identical. Equal entries are not always repeated.

On to `O=C(/C=C/c1ccc(O)cc1)c1ccc(O)c(CN(CCO)CCO)c1O` [Compound 15, (E)-1-(3-((bis(2-hydroxyethyl)amino)methyl)-2,4-dihydroxyphenyl)-3-(4-hydroxyphenyl)prop-2-en-1-one], for which the IC50 is 35.1 µM in data set [1], 42.9 µM in data set [2], 37.9 µM in data set [3] and greater than 100 µM in data set [4]. Besides, the figures for the “TIR (%) tumor inhibitory rate” value in the data set with S180 sarcoma cells (40 mg/kg orally once per day) and with S180 sarcoma cells (80 mg/kg orally once per day) were 39.72% and 71.68%, respectively. The “TW (g) x ± SD (tumor weight)” value was 0.74 ± 0.618 g with S180 sarcoma cells (40 mg/kg orally once per day) and 0.35 ± 0.442 g in the data set on S180 sarcoma cells (80 mg/kg orally once per day). Besides, the figures for the “BWC (%) body-weight change” value in data set [5] (40 mg/kg orally once per day) and in data set [5] (80 mg/kg orally once per day) were “+12.8%” and “+7.8%”, respectively. For the same compound, the “Changes in body weight as parameter for toxicity (in words)” value in data set [5] was “Loss of body weight was not found”.
Compound `O=C(C=Cc1ccc(O)cc1)c1ccc(O)c(CNCCO)c1O` [Compound 14, 1-(2,4-dihydroxy-3-((2-hydroxyethylamino)methyl)phenyl)-3-(4-hydroxyphenyl)propen-1-one] had a melting point greater than 180 °C. The compound further had a concentration for half-maximal inhibition (IC50) in data set [1] of 87.7 µM. Further, the midpoint of inhibition in data set [2], the IC50, lay at 66 µM. In data set [3], this compound showed an IC50 of 89 µM. Also, the half-maximal inhibitory concentration (IC50) in data set [4] is greater than 100 µM.
With `CC(C)N(Cc1c(O)ccc(C(=O)/C=C/c2ccc(O)cc2)c1O)C(C)C` [Compound 10], the melting point is greater than 180 °C. The compound further registered an IC50 in data set [1] greater than 100 µM. Further, the IC50 in data set [2] came to 84.6 µM. In data set [3], this compound had a concentration for half-maximal inhibition (IC50) of 98.1 µM. The compound also returned an IC50 in data set [4] greater than 100 µM.
For the compound `O=C(/C=C/c1ccc(O)cc1)c1ccc(O)c(CNC2CCCCC2)c1O` [Compound 9, (E)-1-(3-(cyclohexylaminomethyl)-2,4-dihydroxyphenyl)-3-(4-hydroxyphenyl)prop-2-en-1-one], the melting point is greater than 168 °C. Besides, in data set [1], the concentration for half-maximal inhibition (IC50) came out at 28.3 µM. Moreover, the IC50 in data set [2] was 73.6 µM. The compound also came in with an IC50 in data set [3] greater than 100 µM. This compound also came in with an IC50 in data set [4] greater than 100 µM.
For `CC(C)(C)NCc1c(O)ccc(C(=O)/C=C/c2ccc(O)cc2)c1O` [Compound 13, (E)-1-(3-((tert-butylamino)methyl)-2,4-dihydroxyphenyl)-3-(4-hydroxyphenyl)prop-2-en-1-one], the melting point is greater than 170 °C. The compound also displayed an IC50 in data set [1] greater than 100 µM. The half-inhibitory concentration (IC50) in data set [2] was greater than 100 µM. Besides, the IC50 in data set [3] is greater than 100 µM. For the same compound, the IC50 in data set [4] is greater than 100 µM.
`CCN(CC)Cc1c(O)ccc(C(=O)/C=C/c2ccc(O)cc2)c1O` [Compound 11, (E)-1-(3-((diethylamino)methyl)-2,4-dihydroxyphenyl)-3-(4-hydroxyphenyl)prop-2-en-1-one] gave a melting point greater than 176 °C. Also, the half-maximal inhibitory concentration (IC50) in data set [1] was 66 µM. This compound also returned an IC50 in data set [2] greater than 100 µM. The 50% inhibitory concentration (IC50) in data set [3] was 97.3 µM. Moreover, the half-maximal inhibitory concentration (IC50) in data set [4] was greater than 100 µM.
Take `O=C(/C=C/c1ccc(O)cc1)c1ccc(O)c(CN2CCCC2)c1O` [Compound 16]: the melting point was 116.5 to 117.1 °C and 116.5 to 117.4 °C. The same compound showed an IC50 in data set [1] greater than 100 µM. This compound came in with an IC50 in data set [2] of 81.8 µM. It took 74.9 µM to reach half-maximal inhibition in data set [3] (IC50). In addition, the IC50 in data set [4] was greater than 100 µM.
For `O=C(/C=C/c1ccc(O)cc1)c1ccc(O)c(CN2CCOCC2)c1O` [Compound 8, (E)-1-(2,4-dihydroxy-3-(morpholinomethyl)phenyl)-3-(4-hydroxyphenyl)prop-2-en-1-one], the melting point is greater than 180 °C. Further, the IC50 in data set [1] stood at 48.6 µM. The compound also gave a 50% inhibitory concentration (IC50) in data set [2] greater than 100 µM. The compound further came in with a half-maximal inhibitory concentration (IC50) in data set [3] of 96.4 µM. The IC50 in data set [4] is greater than 100 µM.
As for `O=C(/C=C/c1ccc(O)cc1)c1ccc(O)cc1O` [ISL, isoliquiritigenin], the IC50 was 36.9 µM in data set [1], 44.1 µM in data set [2], 58.4 µM in data set [3] and greater than 100 µM in data set [4]. The “TIR (%) tumor inhibitory rate” value in the data set on S180 sarcoma cells (40 mg/kg orally once per day) is listed as 32.44%. Also, in the data set with S180 sarcoma cells (40 mg/kg orally once per day), the “TW (g) x ± SD (tumor weight)” value was 0.85 ± 0.369 g. In addition, the “BWC (%) body-weight change” value in data set [5] (40 mg/kg orally once per day) is given as −3.0%. Also, in data set [5], the “Changes in body weight as parameter for toxicity (in words)” value is recorded as “slight weight loss”.
As for `CCC(C)NCc1c(O)ccc(C(=O)/C=C/c2ccc(O)cc2)c1O` (stereo not shown) [Compound 12, (E)-1-(3-((sec-butylamino)methyl)-2,4-dihydroxyphenyl)-3-(4-hydroxyphenyl)prop-2-en-1-one], the melting point was greater than 175 °C. The compound also yielded a half-inhibitory concentration (IC50) in data set [1] of 57.1 µM. In addition, in data set [2], it took 84.8 µM to reach half-maximal inhibition (IC50). For the same compound, the IC50 in data set [3] was greater than 100 µM. Moreover, the IC50 in data set [4] was greater than 100 µM.
For `CN(C)Cc1c(O)ccc(C(=O)/C=C/c2ccc(O)cc2)c1O` [Compound 7, (E)-1-(3-(dimethylaminomethyl)-2,4-dihydroxyphenyl)-3-(4-hydroxyphenyl)prop-2-en-1-one], the melting point was greater than 176 °C. This compound gave an IC50 in data set [1] greater than 100 µM. The compound also registered an IC50 in data set [2] greater than 100 µM. For the same compound, in data set [3], the 50% inhibitory concentration (IC50) is greater than 100 µM. Also, the IC50 in data set [4] is greater than 100 µM.

In general, IC50 refers to the concentration needed to halve the response being measured. In general, melting point refers to the temperature, or range, at which the solid turns liquid.
